Source: ChEMBL document CHEMBL1141155, “The protein farnesyltransferase inhibitor Tipifarnib as a new lead for the development of drugs against Chagas disease” (J Med Chem, 2005)

How the values were obtained:
[1] = Inhibitory concentration against Protein farnesyltransferase of Trypanosoma cruzi
Trypanosoma cruzi = assay: Inhibition of Trypanosoma cruzi growth; assay type: functional; settings: read-out: ED50 (the source's name)

Cn1cncc1[C@@](N)(c1ccc(Cl)cc1)c1ccc2c(c1)c(-c1cccc(Cl)c1)cc(=O)n2C [TIPIFARNIB]
IC50 [1]: ~75 nM
EC50 (Trypanosoma cruzi): 4 nM
